The source of these data is ChEMBL document CHEMBL3217520, “Histamine H3 receptor ligands with a 3-cyclobutoxy motif: a novel and versatile constraint of the classical 3-propoxy linker” (Medchemcomm, 2010).

Assay [1] concerns the target T1, Histamine H3 receptor (Homo sapiens, UniProt Q9Y5N1). Kind of assay: Inverse agonist activity at human histamine H3 receptor expressed in CHO cells assessed as inhibition of [35S]-GTPgammaS binding by liquid scintillation counting. In kind it is functional, cell-based. On the technique in general: GTPγS is a poorly hydrolysed GTP analogue; its binding reports G protein activation.

The target in assay [2] is T1, Histamine H3 receptor. Kind of assay: Displacement of [3H]-Nalpha-methylhistamine from human histamine H3 receptor expressed in CHO cells by liquid scintillation counting. In kind it is cell-based.

T1 sequence (Q9Y5N1 whole entry): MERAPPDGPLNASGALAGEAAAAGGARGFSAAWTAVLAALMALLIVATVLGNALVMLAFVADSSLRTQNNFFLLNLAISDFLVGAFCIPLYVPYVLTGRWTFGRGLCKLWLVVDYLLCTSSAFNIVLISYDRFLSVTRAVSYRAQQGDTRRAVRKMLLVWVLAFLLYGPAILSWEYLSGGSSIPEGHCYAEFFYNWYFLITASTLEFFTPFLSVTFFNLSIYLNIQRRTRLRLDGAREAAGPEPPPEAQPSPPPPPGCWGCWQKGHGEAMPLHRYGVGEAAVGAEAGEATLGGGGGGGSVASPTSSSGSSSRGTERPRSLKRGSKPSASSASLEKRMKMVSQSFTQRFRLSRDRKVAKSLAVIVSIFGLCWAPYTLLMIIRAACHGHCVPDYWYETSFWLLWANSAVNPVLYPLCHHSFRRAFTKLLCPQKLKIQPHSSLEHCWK

By EC50 is commonly meant the concentration giving half of the maximal effect. As a reminder, the Ki is the equilibrium dissociation constant of an inhibitor or competing ligand from its target. As to `COC(=O)c1oc(-c2ccc(O[C@H]3C[C@H](N4CCCCC4)C3)cc2)nc1C`, on Histamine H3 receptor [1], the EC50 is 1.58 nM. Moreover, affinity on Histamine H3 receptor [2] was put at a Ki of 2 nM.

On to `CC1(C)COC(c2ccc(O[C@H]3C[C@H](N4CCCCC4)C3)cc2)=N1`, for which the EC50 at Histamine H3 receptor [1] was 0.631 nM. This molecule gave a Ki at Histamine H3 receptor [2] of 7.94 nM.

As to `c1cc(-c2nc(CN3CCCCC3)co2)ccc1O[C@H]1C[C@H](N2CCCCC2)C1`, on Histamine H3 receptor [1], the concentration giving a half-maximal response (EC50) was 3.16 nM. The affinity at Histamine H3 receptor [2] corresponds to a Ki of 1.26 nM.

As for `c1cc(-c2nc(CN3CCCCC3)co2)ccc1OCCCN1CCCCC1`, the EC50 at Histamine H3 receptor [1] is 1.58 nM. At Histamine H3 receptor [2], this molecule showed a Ki of 6.31 nM.

In the case of `c1cc(C2=NC3(CCCCC3)CO2)ccc1OCCCN1CCCCC1`, the EC50 at Histamine H3 receptor [1] is 7.94 nM. On Histamine H3 receptor [2], this molecule had a Ki of 79.4 nM.

As for `c1cc(C2=NC3(CCCCC3)CO2)ccc1O[C@H]1C[C@H](N2CCCCC2)C1`, the 50% effective concentration (EC50) at Histamine H3 receptor [1] is 2 nM. For the same molecule, the affinity on Histamine H3 receptor [2], expressed as Ki, was 2 nM.

`c1cc(C2=NC3(CCCCC3)CO2)ccc1O[C@H]1C[C@@H](N2CCCCC2)C1`: the EC50 at Histamine H3 receptor [1] is 79.4 nM. This molecule showed a Ki at Histamine H3 receptor [2] of 251 nM.

Take `CC1(C)COC(c2ccc(OCCCN3CCCCC3)cc2)=N1`: the half-maximal effective concentration (EC50) at Histamine H3 receptor [1] is 15.8 nM. The same molecule gave a Ki on Histamine H3 receptor [2] of 158 nM.
